Laboratory results: patent publication US20240000872A1, “NOVEL BACTERIOPHAGE THAT LYSES ACINETOBACTER GENUS BACTERIA HAVING RESISTANCE TO ANTIBIOTICS” (priority 2020, published 2024)

Test system: Acinetobacter baumannii strains
Assay: Antibiotic susceptibility test (CLSI disk diffusion test method, read per CLSI 2016); for antibiotic susceptibility S/I/R: key: ‘S’ means susceptible; ‘I’ means intermediate; ‘R’ means resistant; for susceptibility category (S/I/R): key: ‘S’ means susceptible; ‘I’ means intermediate; ‘R’ means resistant
Type: cell-based
Set-up: antibiotic susceptibility test value / susceptibility test value (number given before S/I/R) / antibiotic susceptibility value: unit not given here

piperacillin-tazobactam
antibiotic susceptibility value (host strain YMC16/01/R353): 128 | susceptibility category (S/I/R) (host strain YMC16/01/R353): R | susceptibility test value (number given before S/I/R) (host strain YMC16/01/R353): 128 | antibiotic susceptibility S/I/R (host strain YMC16/01/R380): R | antibiotic susceptibility value (host strain YMC16/01/R380): 128 | susceptibility category (S/I/R) (host strain YMC16/01/R380): R | susceptibility test value (number given before S/I/R) (host strain YMC16/01/R380): 128 | antibiotic susceptibility S/I/R (host strain YMC16/01/R397): R | antibiotic susceptibility value (host strain YMC16/01/R397): 128 | susceptibility category (S/I/R) (host strain YMC16/01/R397): R | susceptibility test value (number given before S/I/R) (host strain YMC16/01/R397): 128 | antibiotic susceptibility S/I/R (host strain YMC16/01/R405): R | antibiotic susceptibility value (host strain YMC16/01/R405): 128 | susceptibility category (S/I/R) (host strain YMC16/01/R405): R | susceptibility test value (number given before S/I/R) (host strain YMC16/01/R405): 128 | antibiotic susceptibility S/I/R (host strain YMC16/03/R4461): R | antibiotic susceptibility value (host strain YMC16/03/R4461): 128 | susceptibility category (S/I/R) (host strain YMC16/03/R4461): R | susceptibility test value (number given before S/I/R) (host strain YMC16/03/R4461): 128 | antibiotic susceptibility S/I/R (host strain YMC16/05/R2210): R | antibiotic susceptibility value (host strain YMC16/05/R2210): 128 | susceptibility category (S/I/R) (host strain YMC16/05/R2210): R | susceptibility test value (number given before S/I/R) (host strain YMC16/05/R2210): 128 | antibiotic susceptibility S/I/R (host strain YMC16/07/R2512): R | antibiotic susceptibility value (host strain YMC16/07/R2512): 128 | susceptibility category (S/I/R) (host strain YMC16/07/R2512): R | susceptibility test value (number given before S/I/R) (host strain YMC16/07/R2512): 128 | antibiotic susceptibility S/I/R (host strain YMC16/09/R2471): R | antibiotic susceptibility value (host strain YMC16/09/R2471): 128 | susceptibility category (S/I/R) (host strain YMC16/09/R2471): R | susceptibility test value (number given before S/I/R) (host strain YMC16/09/R2471): 128 | antibiotic susceptibility S/I/R (host strain YMC16/10/R2537): R | antibiotic susceptibility value (host strain YMC16/10/R2537): 128 | susceptibility category (S/I/R) (host strain YMC16/10/R2537): R | susceptibility test value (number given before S/I/R) (host strain YMC16/10/R2537): 128 | antibiotic susceptibility S/I/R (host strain YMC16/12/B11422): R | antibiotic susceptibility value (host strain YMC16/12/B11422): 128 | susceptibility category (S/I/R) (host strain YMC16/12/B11422): R | susceptibility test value (number given before S/I/R) (host strain YMC16/12/B11422): 128 | antibiotic susceptibility S/I/R (host strain YMC16/12/B11449): R | antibiotic susceptibility value (host strain YMC16/12/B11449): 128 | susceptibility category (S/I/R) (host strain YMC16/12/B11449): R | susceptibility test value (number given before S/I/R) (host strain YMC16/12/B11449): 128 | antibiotic susceptibility S/I/R (host strain YMC16/12/B13325): R | antibiotic susceptibility value (host strain YMC16/12/B13325): 128 | susceptibility category (S/I/R) (host strain YMC16/12/B13325): R | susceptibility test value (number given before S/I/R) (host strain YMC16/12/B13325): 128 | antibiotic susceptibility S/I/R (host strain YMC16/12/P503): R | antibiotic susceptibility value (host strain YMC16/12/P503): 128 | susceptibility category (S/I/R) (host strain YMC16/12/P503): R | susceptibility test value (number given before S/I/R) (host strain YMC16/12/P503): 128 | antibiotic susceptibility S/I/R (host strain YMC16/12/R4637): R | antibiotic susceptibility value (host strain YMC16/12/R4637): 128 | susceptibility category (S/I/R) (host strain YMC16/12/R4637): R | susceptibility test value (number given before S/I/R) (host strain YMC16/12/R4637): 128 | antibiotic susceptibility S/I/R (host strain YMC17/01/B8053): R | antibiotic susceptibility value (host strain YMC17/01/B8053): 128 | susceptibility category (S/I/R) (host strain YMC17/01/B8053): R | susceptibility test value (number given before S/I/R) (host strain YMC17/01/B8053): 128 | antibiotic susceptibility S/I/R (host strain YMC17/01/B10087): R | antibiotic susceptibility value (host strain YMC17/01/B10087): 128 | susceptibility category (S/I/R) (host strain YMC17/01/B10087): R | susceptibility test value (number given before S/I/R) (host strain YMC17/01/B10087): 128 | antibiotic susceptibility S/I/R (host strain YMC17/01/B12075): R | antibiotic susceptibility value (host strain YMC17/01/B12075): 128 | susceptibility category (S/I/R) (host strain YMC17/01/B12075): R | susceptibility test value (number given before S/I/R) (host strain YMC17/01/B12075): 128 | antibiotic susceptibility S/I/R (host strain YMC17/01/B13454): R | antibiotic susceptibility value (host strain YMC17/01/B13454): 128 | susceptibility category (S/I/R) (host strain YMC17/01/B13454): R | susceptibility test value (number given before S/I/R) (host strain YMC17/01/B13454): 128 | antibiotic susceptibility S/I/R (host strain YMC17/01/P518): R | antibiotic susceptibility value (host strain YMC17/01/P518): 128 | susceptibility category (S/I/R) (host strain YMC17/01/P518): R | susceptibility test value (number given before S/I/R) (host strain YMC17/01/P518): 128 | antibiotic susceptibility S/I/R (host strain YMC17/01/R2812): R | antibiotic susceptibility value (host strain YMC17/01/R2812): 128 | susceptibility category (S/I/R) (host strain YMC17/01/R2812): R | susceptibility test value (number given before S/I/R) (host strain YMC17/01/R2812): 128 | antibiotic susceptibility S/I/R (host strain YMC17/02/B14): R | antibiotic susceptibility value (host strain YMC17/02/B14): 128 | susceptibility category (S/I/R) (host strain YMC17/02/B14): R | susceptibility test value (number given before S/I/R) (host strain YMC17/02/B14): 128 | antibiotic susceptibility S/I/R (host strain YMC17/02/B87): R | antibiotic susceptibility value (host strain YMC17/02/B87): 128 | susceptibility category (S/I/R) (host strain YMC17/02/B87): R | susceptibility test value (number given before S/I/R) (host strain YMC17/02/B87): 128 | antibiotic susceptibility S/I/R (host strain YMC17/02/B721): R | antibiotic susceptibility value (host strain YMC17/02/B721): 128 | susceptibility category (S/I/R) (host strain YMC17/02/B721): R | susceptibility test value (number given before S/I/R) (host strain YMC17/02/B721): 128 | antibiotic susceptibility S/I/R (host strain YMC17/02/B4039): R | antibiotic susceptibility value (host strain YMC17/02/B4039): 128 | susceptibility category (S/I/R) (host strain YMC17/02/B4039): R | susceptibility test value (number given before S/I/R) (host strain YMC17/02/B4039): 128 | antibiotic susceptibility S/I/R (host strain YMC17/02/B4520): R | antibiotic susceptibility value (host strain YMC17/02/B4520): 128 | susceptibility category (S/I/R) (host strain YMC17/02/B4520): R | susceptibility test value (number given before S/I/R) (host strain YMC17/02/B4520): 128 | antibiotic susceptibility S/I/R (host strain YMC17/02/B4864): S | antibiotic susceptibility value (host strain YMC17/02/B4864): 4 | susceptibility category (S/I/R) (host strain YMC17/02/B4864): S | susceptibility test value (number given before S/I/R) (host strain YMC17/02/B4864): 4 | antibiotic susceptibility S/I/R (host strain YMC17/02/B8414): R | antibiotic susceptibility value (host strain YMC17/02/B8414): 128 | susceptibility category (S/I/R) (host strain YMC17/02/B8414): R | susceptibility test value (number given before S/I/R) (host strain YMC17/02/B8414): 128 | antibiotic susceptibility S/I/R (host strain YMC17/02/P523): R | antibiotic susceptibility value (host strain YMC17/02/P523): 128 | susceptibility category (S/I/R) (host strain YMC17/02/P523): R | susceptibility test value (number given before S/I/R) (host strain YMC17/02/P523): 128 | antibiotic susceptibility S/I/R (host strain YMC17/02/R541): R | antibiotic susceptibility value (host strain YMC17/02/R541): 128 | susceptibility category (S/I/R) (host strain YMC17/02/R541): R | susceptibility test value (number given before S/I/R) (host strain YMC17/02/R541): 128 | antibiotic susceptibility S/I/R (host strain YMC17/02/R2392): R | antibiotic susceptibility value (host strain YMC17/02/R2392): 128 | susceptibility category (S/I/R) (host strain YMC17/02/R2392): R | susceptibility test value (number given before S/I/R) (host strain YMC17/02/R2392): 128 | antibiotic susceptibility S/I/R (host strain YMC17/03/B4730): R | antibiotic susceptibility value (host strain YMC17/03/B4730): 128 | susceptibility category (S/I/R) (host strain YMC17/03/B4730): R | susceptibility test value (number given before S/I/R) (host strain YMC17/03/B4730): 128 | antibiotic susceptibility S/I/R (host strain YMC17/03/B5000): R | antibiotic susceptibility value (host strain YMC17/03/B5000): 128 | susceptibility category (S/I/R) (host strain YMC17/03/B5000): R | susceptibility test value (number given before S/I/R) (host strain YMC17/03/B5000): 128 | antibiotic susceptibility S/I/R (host strain YMC17/03/P971): R | antibiotic susceptibility value (host strain YMC17/03/P971): 128 | susceptibility category (S/I/R) (host strain YMC17/03/P971): R | susceptibility test value (number given before S/I/R) (host strain YMC17/03/P971): 128 | antibiotic susceptibility S/I/R (host strain YMC17/03/R348): R | antibiotic susceptibility value (host strain YMC17/03/R348): 128 | susceptibility category (S/I/R) (host strain YMC17/03/R348): R | susceptibility test value (number given before S/I/R) (host strain YMC17/03/R348): 128 | antibiotic susceptibility S/I/R (host strain YMC17/03/R585): R | antibiotic susceptibility value (host strain YMC17/03/R585): 128 | susceptibility category (S/I/R) (host strain YMC17/03/R585): R | susceptibility test value (number given before S/I/R) (host strain YMC17/03/R585): 128 | antibiotic susceptibility S/I/R (host strain YMC17/03/R1888): R | antibiotic susceptibility value (host strain YMC17/03/R1888): 128 | susceptibility category (S/I/R) (host strain YMC17/03/R1888): R | susceptibility test value (number given before S/I/R) (host strain YMC17/03/R1888): 128 | antibiotic susceptibility S/I/R (host strain YMC17/03/R3279): R | antibiotic susceptibility value (host strain YMC17/03/R3279): 128 | susceptibility category (S/I/R) (host strain YMC17/03/R3279): R | susceptibility test value (number given before S/I/R) (host strain YMC17/03/R3279): 128 | antibiotic susceptibility S/I/R (host strain YMC17/03/R4077): R | antibiotic susceptibility value (host strain YMC17/03/R4077): 128 | susceptibility category (S/I/R) (host strain YMC17/03/R4077): R | susceptibility test value (number given before S/I/R) (host strain YMC17/03/R4077): 128 | antibiotic susceptibility S/I/R (host strain YMC17/03/R4607): R | antibiotic susceptibility value (host strain YMC17/03/R4607): 128 | susceptibility category (S/I/R) (host strain YMC17/03/R4607): R | susceptibility test value (number given before S/I/R) (host strain YMC17/03/R4607): 128 | antibiotic susceptibility S/I/R (host strain YMC17/04/R488): R | antibiotic susceptibility value (host strain YMC17/04/R488): 128 | susceptibility category (S/I/R) (host strain YMC17/04/R488): R | susceptibility test value (number given before S/I/R) (host strain YMC17/04/R488): 128 | antibiotic susceptibility S/I/R (host strain YMC17/04/R640): R | antibiotic susceptibility value (host strain YMC17/04/R640): 128 | susceptibility category (S/I/R) (host strain YMC17/04/R640): R | susceptibility test value (number given before S/I/R) (host strain YMC17/04/R640): 128 | antibiotic susceptibility S/I/R (host strain YMC/17/05/R1095): R | antibiotic susceptibility value (host strain YMC/17/05/R1095): 128 | susceptibility category (S/I/R) (host strain YMC/17/05/R1095): R | susceptibility test value (number given before S/I/R) (host strain YMC/17/05/R1095): 128
